Test results as given in article PMC5077133, “Towards Development of Small Molecule Lipid II Inhibitors as Novel Antibiotics” (PLoS ONE, 2016).
“And” between values parts separate entries of the source, which are not always exact repeats. Identical values can stand only once.

Columns and labels:
E. faecium EF1509 (VRE) = test: Antibacterial activity (MIC, broth dilution); format: cell-based; conditions: CLSI, in µg/mL
Method: (§1) Determination of the Minimal Inhibitory Concentrations (MIC) by dilution was carried out by broth dilution according to CLSI standards.

E. faecium F118 (VRE) = test: Antibacterial activity (MIC, broth dilution); format: cell-based; conditions: CLSI, in µg/mL
Method: as §1

P. aeruginosa ATCC 27853 = test: Antibacterial activity (MIC, broth dilution); format: cell-based; conditions: CLSI
Method: as §1

[1] = Solubility in water (laser nephelometry); format: physicochemical; conditions: n=3
Method: Solubility in water was determined using a NEPHELOstar^plus laser nephelometer (BMG Labtech, Cary, NC) at a wavelength of 635 nm and bottom read optics using a 96-well plate format. A solution of 6jc48-1 was prepared at a concentration of 2.5 mg/ml in DMSO. The DMSO solution (10 μl) was added to wells containing water (290 μl) for a final concentration of 125 μg/ml. The plate was incubated at room temperature for two hours prior to reading in the nephalometer. All samples were run in triplicate. Control samples (DMSO with no analyte) were prepared and run in parallel.

[2] = set-up: method as in PMID 25987836; conditions: IV, parent compound for comparison; cited from earlier work

Row | SMILES | Antibacterial activity (MIC) E. faecium EF1509 (VRE) (E. faecium EF1509 (VRE)) | Antibacterial activity (MIC) E. faecium F118 (VRE) (E. faecium F118 (VRE)) | Antibacterial activity (MIC) P. aeruginosa ATCC 27853 (P. aeruginosa ATCC 27853) [µg/mL] | solubility at 2 h [1] [µg/mL] | AUCInf [2] [ng·h/mL] | AUClast [2] [ng·h/mL] | Cl_obs [2] [mL/min/kg] | Cmax [2] [ng/mL] | T1/2 [2] | Vss_obs [2] [L/kg]
1 | CN(C)c1ccc(/C=C/c2cc(-c3ccc(Br)cc3)cc(-c3ccc(Br)cc3)[o+]2)cc1 [6jc48-1] | 2.828 | 5.657 | ≥ 64 | > 50 |  |  |  |  |  | 
2 | CN1/C(=C/C=C/c2cc(-c3ccccc3)cc(-c3ccccc3)[o+]2)C(C)(C)c2ccccc21 [BAS-00127538, (1-Methyl-2,4-diphenyl-6-((1E,3E)-3-(1,3,3-trimethylindolin-2-ylidene)prop-1-en-1-yl)pyryl-1-ium) tetrafluoroborate, reference compound] |  |  |  |  | 27.9 | 26.9 | 711 | 101 | 13.2 min and 13.6 min | 12.2
